Numbered stars: 1 amine (or outer) side, 2 acyl side, 3 side chain; on linkers, the order of the positions; unused ones are H or OH. Bridge positions count the residues as written; N and C are the ends. Square brackets hold non-standard residues; d marks the D form. Peptide text beside a SMILES is read from it. * marks the point of attachment. hTyr(3S-OH,4S-OH,3'-OSO3H) = N[C@H](C(=O)O)[C@H](O)[C@@H](O)c1ccc(O)c(OS(=O)(=O)O)c1; Orn(4R-OH,5R-OH) = O=C([C@H](C[C@@H](O)[C@@H](O)N[*:3])N[*:1])[*:2]; Pro(3S-OH,4S-Me) = C[C@H]1CN[C@H](C(=O)O)[C@H]1O; X1 = CCCCCOc1ccc(-c2cc(-c3ccc(C(=O)*)cc3)no2)cc1; Gln(3R-OH) = NC(=O)C[C@@H](O)[C@H](N)C(=O)O; Hyp = O=C(O)[C@@H]1C[C@@H](O)CN1
What was measured:
C. albicans [1] = experiment: Agar diffusion: zone of growth inhibition around PM-cement discs impregnated with antifungal; type: cell-based; details: for duration of activity / inhibitory activity compared with voriconazole: PM cement discs; for duration of activity: days of incubation; for inhibitory activity compared with voriconazole: in words; for time up to which anti-candida activity was detected: cement discs, post-incubation
Procedure: The echinocandin antifungal micafungin or the triazole voriconazole were mixed with polymethylmethacrylate and a bone cement was formed using the mixture. C. albicans was grown overnight in T-soy broth, washed in buffer, then 1000 C. albicans yeast cells were added to the agar surface of a medium containing RPMI, MOPS, and 2% glucose, which was prepared by adding the latter to autoclaved agar after the agar had cooled for 15 min. Cement discs containing micafungin (100 mg) or voriconazole (400 mg) were prepared as described below. Each cement-antifungal disc was placed on the agar culture medium containing the organism.
The antifungal-cement mix (Smartset HV®, bone cement, DePuy (Warsaw, Ind.)) was prepared as follows under sterile conditions: the polymethylmethacrylate (PM) cement powder (part 1) was first mixed thoroughly with each drug and, then 18.88 g of bone cement liquid (part 2) was added to the mixture. Discs of cement-drug were prepared quickly before the cement hardened. Each cement disc (14 mm) was then placed in the center of inoculated agar cultures in 60 mm petri dishes. The plates were then incubated at 30° C. and zones of inhibition were measured every 24 hrs until activity was not observed (usually 6 days). The same discs were removed daily and placed on fresh agar medium that was inoculated similarly.
At 24 hrs, cement discs containing the antifungal micafungin were about 2.5-fold greater in activity that voriconazole. Further, the activity of micafungin was still detected at 120 hrs post-incubation, while no activity was detected after 24 hrs with voriconazole. Data were plotted as mm growth inhibition versus days of incubation (Table 1). The plates were digitally photographed using image processing software.

C. albicans [2] = experiment: Growth inhibition by PM-cement or hydroxyapatite (HA) infiltrated with micafungin or anidulafungin (FIG. 2); type: cell-based, Candida albicans
Procedure: FIG. 2 is a graph showing comparisons of micafungin (MIC) and anidulafungin (ANA) infiltrated in hydrozyapatite (HA) or polymethylmethacrylate (PM)-cement and their inhibitory activity against C. albicans.
Both PM-cement and hydroxyapatite (HA) infiltrated with either micafungin or anidulafungin were evaluated. […] The results again indicated the superiority of micafungin (especially the longevity or diffusion of the drug) regardless of whether the drug was infiltrated in HA or PM cement.

| SMILES | duration of activity (C. albicans [1]) [days] | inhibitory activity compared with voriconazole (C. albicans [1]) | inhibitory activity compared with voriconazole (C. albicans [1]; listed as Micafungin) | activity of cement discs relative to voriconazole discs (C. albicans [1]; at 24 hrs, micafungin 100 mg vs voriconazole 400 mg discs) | time up to which anti-candida activity was detected (C. albicans [1]) [h] | in vitro anti-Candida albicans activity, comparison (C. albicans [2]; HA or PM cement, in words) | persistence of activity (C. albicans [2]; drug infiltrated in HA or PM cement) [days] | duration of activity (C. albicans [1]; listed as voriconzole) [days] |
| --- | --- | --- | --- | --- | --- | --- | --- | --- |
| CCCCCOc1ccc(-c2cc(-c3ccc(C(=O)N[C@H]4C[C@@H](O)[C@@H](O)NC(=O)[C@@H]5[C@@H](O)[C@@H](C)CN5C(=O)[C@H]([C@H](O)CC(N)=O)NC(=O)[C@H]([C@H](O)[C@@H](O)c5ccc(O)c(OS(=O)(=O)O)c5)NC(=O)[C@@H]5C[C@@H](O)CN5C(=O)[C@H]([C@@H](C)O)NC4=O)cc3)no2)cc1 [micafungin] (X1-[Orn(4R-OH,5R-OH)]T[Hyp][hTyr(3S-OH,4S-OH,3'-OSO3H)][Gln(3R-OH)][Pro(3S-OH,4S-Me)]; lactam 1-C) | ≥ 6 | much greater | superior and longer lasting | about 2.5 fold | ≥ 120 | significantly greater than that of voriconazole and anidulafungin | 6 to 7 | – |
| C[C@@H](c1ncncc1F)[C@](O)(Cn1cncn1)c1ccc(F)cc1F [voriconazole] | 1 | – | – | – | ≤ 24 | – | – | ≤ 1 |
